The assay addresses T1, E. coli channel protein MscL Gly22Cys (Escherichia coli, UniProt P0A742, G22C).
T1 construct: made in house
Kind of assay: Calcein release from liposomes containing MscL Gly22Cys (self-quenching fluorescent dye). The class given is biochemical. The procedure:
MscL-MA was reconstituted into synthetic liposomes composed of azolectin by using a detergent mediated reconstitution method. The incorporation of channels protein in lipid vesicles is describe in detail in WO2005051902 This procedure was performed in the presence of calcein, a self-quenching fluorescent dye. At high local concentrations inside the liposomes, the fluorescence of calcein is low. Release of calcein from liposomes results in dilution of the dye and consequently in a large increase in fluorescence intensity. The labelling and reconstitution was validated by using unlabeled MscL instead of MscL-MA.
The activity of azide labeled Gly22Cys MscL in the liposome was verified with triphenylphosphine (Trisodium triphenylphosphine-3,3′,3″-trisulfonate) at pH 7.2-7.5 at 37° C.
A control experiment was performed using vesicles with unlabelled Gly22Cys MscL and the channel activator MTSET, which is a charged and cysteine-reactive molecule.
MscL-MA has a closed conformation. Calcein can not leave from a vesicle via this closed MscL-MA. To these vesicles MTSET was added. Unlabelled cysteine residues, if present, will react with MTSET and introduce a charge in the channel protein resulting in the opening of the channel and release of fluorescent label. Such residual activation was not observed, showing that a quantitative MA labelling of all cysteines in MscL was obtained (FIG. 7, bottom panel).
In the experimental setting calcein-filled vesicles with MscL-MA are treated with triphenylphosphine at […].
Control experiments are performed using the same calcein filled vesicles with MscL, which is not modified with MA and wherein these unmodified vesicles are treated with triphenylphosphine.

SMILES strings stand for the structures.

T1 sequence (P0A742 whole entry G22C): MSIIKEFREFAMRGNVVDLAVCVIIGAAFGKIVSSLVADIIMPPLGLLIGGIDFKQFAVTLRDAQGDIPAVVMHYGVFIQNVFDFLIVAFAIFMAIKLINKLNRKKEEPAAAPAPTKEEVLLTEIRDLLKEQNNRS

For `C[N+](C)(C)CCSS(C)(=O)=O.[Br-]` [MTSET], the “calcein release after addition of MTSET” value (calcein-filled liposomes with unlabelled (unmodified) Gly22Cys MscL) is given as “resulted in calcein release”. Moreover, under “vesicles with azide-modified MscL (MscL-MA)”, the “activation / calcein release after addition of MTSET” value is listed as “could not activate the modified MscL”. As for `CS(=O)(=O)SCCOC(=O)CNC(=O)OCc1ccc(N=[N+]=[N-])cc1` [compound IX], under “MscL modified with compound IX, calcein filled vesicles, pH 7.4”, the “release from MscL upon contacting with phosphine” value is given as “significant increase in release”.

These data come from patent US8623325B2, “Azide modified charge sensitive channel proteins” (priority 2008, dated 2014).
